Results as given in ChEMBL document CHEMBL1146647, “First total synthesis of structurally unique flavonoids and their strong anti-inflammatory effect” (2004).

Tested on: Mus musculus
Experiment: Percentage increase of mice ear thickness at 10 ug/kg
Format: functional

Row | Structure (SMILES) | Increase [%]
1 | O=c1cc(-c2ccc(O)cc2)oc2cc3c(c(O)c12)[C@@H]1O[C@H](CO)[C@@H](O)[C@H](O)[C@@H]1O3 | 30
2 | O=c1cc(-c2ccccc2)oc2cc3c(c(O)c12)[C@@H]1O[C@H](CO)[C@@H](O)[C@H](O)[C@@H]1O3 | 59
